Several values for one entry are separate records, joined by “and”; a condition that tells them apart may be missing. Equal values may be shown once.
Legend:
WT mice = test: [18F]FDG PET metabolic mapping in WT mice; assay type: in vivo, mouse
Method: Mice (D1-hM3Dq, D1-hM4Di or WT littermates, see above) were habituated to experimenter handling and fasted 16 h before the experiment. On the day of the experiment, mice received an IP injection of vehicle (1 ml kg^−1) and were placed back into their home cages. Ten minutes later, mice were injected (IP) with 11 MBq of 2-deoxy-2-[^18F]fluoro-D-glucose (FDG, Cardinal Health) and placed back into their home cages. After 30 min, mice were anesthetized with 1.5% isoflurane, placed on a custom-made bed of a nanoScan small animal PET/CT scanner (Mediso Medical Imaging Systems) and scanned for 20 min on a static acquisition protocol, followed by a CT scan. […] Voxel-based repeated measures with Student’s t test comparing baseline to drug were performed, and the resulting parametric images were filtered for statistically significant (p < 0.05) clusters larger than 100 contiguous voxels. All statistical parametric mapping analyses were performed using Matlab R2016 (Mathworks) and SPM12 (University College London).

hM4Di = molecular target: T1, hM4Di (Homo sapiens, UniProt P08173, A203G/Y113C); test: [11C]clozapine PET occupancy in monkey expressing hM4Di in the amygdala; assay type: in vivo, rhesus monkey (Macaca mulatta); parameters: expressed in transfected cells; host or cells: rhesus monkey (Macaca mulatta) right amygdala, lentivirus-transduced neurons
T1 sequence (P08173 1-479 Y113C/A203G): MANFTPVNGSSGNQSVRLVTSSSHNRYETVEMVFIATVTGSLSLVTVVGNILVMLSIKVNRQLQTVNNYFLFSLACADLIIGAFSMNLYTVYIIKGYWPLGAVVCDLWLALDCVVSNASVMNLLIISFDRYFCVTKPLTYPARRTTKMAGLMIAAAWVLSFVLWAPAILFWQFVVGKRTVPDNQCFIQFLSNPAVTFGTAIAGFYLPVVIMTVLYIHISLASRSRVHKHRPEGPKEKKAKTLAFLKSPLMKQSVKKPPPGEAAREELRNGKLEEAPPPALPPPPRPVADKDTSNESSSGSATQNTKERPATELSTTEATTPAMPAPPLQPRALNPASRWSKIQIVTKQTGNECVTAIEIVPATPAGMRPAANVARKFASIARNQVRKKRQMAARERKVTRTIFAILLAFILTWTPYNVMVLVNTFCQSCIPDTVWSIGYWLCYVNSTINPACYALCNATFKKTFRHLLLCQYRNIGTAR
Method: Lentivirus expressing an hM4Di-CFP fusion protein under an hSyn promoter[11] with a titer of >10^9 infectious particles was loaded into a 100 µL glass syringe (Hamilton Co., MA). The 31-gauge needle of the syringe was sheathed with a silica capillary (450 µm OD) to create a step 1 mm from the base of the aperture. The syringe was mounted in a Nanomite pump (Harvard Apparatus, Cambridge, MA). The needle was lowered through the incision in the dura mater to each of the pre-calculated target sites and 10 or 20 µL was infused at a rate of 1 µL min^−1. Each monkey received a total of between 10 and 12 injections (for a total injection volume of 120–240 µL). Post-infusion, the needle was left in situ for 10 min after each injection to allow pressure from the infusate to dissipate. The needle was then slowly removed. At the completion of the injection series the soft tissues were sutured together in anatomical layers.
(§1) All macaque studies were acquired dynamically on the Focus 220 PET scanner (Siemens Medical Solutions, Knoxville, TN). The Focus 220 is a dedicated pre-clinical scanner with a transaxial FOV of 19 cm and an axial FOV of 7.5 cm. Image resolution is <2 mm within the central 5 cm FOV.
(§2) After initial evaluation the monkey was sedated with ketamine (10 mg kg^−1) followed by ketoprofen (as an analgesic) and glycopyrrolate (for salvia reduction), all weight dependent IM injections. The monkey would then be placed in the supine position, intubated with a tracheal tube. Anesthesia was maintained by 1–3.5% isoflurane and oxygen, the monkey’s head was positioned and immobilized for optimal positioning of the brain and moved into the scanner. A 10-min transmission scan using a Co-57-point source for attenuation correction was performed. One iv was inserted, if possible, in the right arm and one in the right leg for injection of tracer and blocking agent. The monkey was always monitored while anesthetized. HR, BP, O2 saturation, RR, three lead ECG, rectal temperature was documented every 15 min.
Arterial blood sampling was acquired throughout the study using an indwelling femoral port. The first 2 min samples were collected every 15 s then at 3, 5, 10, 30, 60, 90, and 120 min post tracer injection. All scans were acquired for 120 min using list mode acquisition.
Scan data were histogrammed into 33 frames (6 × 30 s, 3 × 1 min, 2 × 2 min, and 22 × 5 min). Reconstruction was performed by Filtered Back Projection with scatter correction. After completion of the last study of the day, isoflurane was cut off. The monkey was gradually awakened, moved to the housing facility and fully recovered.

endogenous binding sites = assay type: in vivo; details: monkey
Method: as §1, §2
Arterial blood sampling was acquired throughout the study using an indwelling femoral port. The first 2 min samples were collected every 15 s then at 3, 5, 10, 30, 60, 90, and 120 min post tracer injection. All scans were acquired for 120 min using list mode acquisition. […]
To determine the arterial input function for the radiotracers injected in rhesus monkeys radioligand concentrations in the arterial plasma were corrected by the unchanged parent fraction. […] The unchanged plasma parent fractions were determined by radio-HPLC on an X-terra® C18 column (10 µm, 7.8 mm × 300 mm, Waters Corp., Milford, MA), and eluted with MeOH:H2O:Et3N (80:20:0.1; by volume) at an isocratic flow rate of 4.0 mL min^−1. Eluates were monitored with an in-line flow-through NaI(Tl) scintillation detector (Bioscan). Data were stored and analyzed on a PC using the software “Bio-ChromeLite”. […] Plasma free fraction was determined according to our previous methods.

[1] = test system: endogenous clozapine-binding sites; test: Autoradiography: displacement of [3H]clozapine in WT / non-DREADD mouse brain tissue; details: individual values
Source text: Flash frozen tissue (both rodents and the monkey) was sectioned (20 µm) on a cryostat (Leica, Germany) and thaw mounted onto ethanol-washed glass slides. […] Slides were air dried and placed in a Hypercassette™ (Amersham Biosciences) and covered with a BAS-TR2025 Storage Phosphor Screen (FujiFilm, Japan). The slides were exposed to the screen for 5–7 days and imaged using a phosphor imager (Typhoon FLA 7000; GE Healthcare).

## c1ccc2c(c1)N=C(N1CCNCC1)c1ccccc1N2 [C21]
WT mice; 1 mg/kg IP, 1 mg/kg
  brain metabolic activity ([18F]FDG): significant changes in brain metabolic activity
WT mice; 1 mg/kg IP, listed as Compound 21, 1 mg/kg
  brain metabolic activity ([18F]FDG): decreased metabolic activity of multiple networks
hM4Di; 1 mg/kg IV
  in vivo DREADD occupancy: no measurable occupancy
hM4Di; 10 mg/kg
  hM4Di occupancy: ~ 50%
Endogenous binding sites; 10 mg/kg
  off-target effects: extensive displacement of [^11C]clozapine binding at endogenous binding sites and non-specific effects

## CCN1CCN(C2=Nc3cc(Cl)ccc3Nc3cccc(F)c32)CC1 [JHU37152, 8-Chloro-11-(4-ethylpiperazin-1-yl)-1-fluoro-5H-dibenzo[b,e][1,4]diazepine]
[1]; competitor concentration 0.001, listed as J52
  [3H]CLZ binding in mouse brain sections, WT: 119.578 and 91.3526 and 103.192 and 105.979 and 100.87 and 101.941
[1]; competitor concentration 0.01, listed as J52
  [3H]CLZ binding in mouse brain sections, WT: 85.3632 and 98.6721 and 100.487 and 96.5233 and 115.016 and 88.1843
[1]; competitor concentration 1, listed as J52
  [3H]CLZ binding in mouse brain sections, WT: 68.3087 and 51.6943 and 71.7816 and 75.1729 and 78.8993 and 70.8806

## CCN1CCN(C2=Nc3cc(Cl)ccc3Nc3c(F)cccc32)CC1 [JHU37160, 8-Chloro-11-(4-ethylpiperazin-1-yl)-4-fluoro-5H-dibenzo[b,e][1,4]diazepine]
WT mice; 0.1 mg/kg
  brain metabolic activity ([18F]FDG): no significant brain metabolic changes
WT mice; 0.1 mg/kg, listed as J60, 0.1 mg/kg
  brain metabolic activity ([18F]FDG): did not show any significant changes in brain metabolic activity
hM4Di; 0.1 mg kg-1 (lesser extent 0.01 mg kg-1)
  [11C]clozapine displacement at hM4Di expressed in the amygdala: produced [^11C]clozapine DREADD displacement at hM4Di
hM4Di; 0.1 mg kg-1, hM4Di-expressing region
  [11C]clozapine binding after drug, R_Amygdala: 0.6176
[1]; competitor concentration 0.001, listed as J60
  [3H]CLZ binding in mouse brain sections, WT: 106.379 and 101.292 and 102.926 and 122.941 and 108.508 and 97.311
[1]; competitor concentration 0.01, listed as J60
  [3H]CLZ binding in mouse brain sections, WT: 120.43 and 105.789 and 111.318 and 118.633 and 118.689 and 124.215
[1]; competitor concentration 1, listed as J60
  [3H]CLZ binding in mouse brain sections, WT: 55.5737 and 82.7293 and 46.5386 and 44.7797 and 54.5308 and 62.9299
Endogenous binding sites; 0.1 mg kg-1
  [11C]clozapine binding after drug, L_Amygdala: 0.2865
  [11C]clozapine binding after drug, PFC: 0.3429

— paper PMC6788984, “High-potency ligands for DREADD imaging and activation in rodents and monkeys” (Nature Communications, 2019)
